In BindingDB's records for doi:10.1016/j.bmcl.2017.02.035 (Nestl&#65533, 2017):

Biological target: Disintegrin and metalloproteinase domain-containing protein 17 (Homo sapiens, UniProt P78536)
Test: Inhibition of recombinant TACE catalytic domain (unknown origin) using Abz-LAQAVRSSSR-Dpa as substrate preincubated for 10 mins followed by substrate addition measured after 10 mins by FRET assay

Disintegrin and metalloproteinase domain-containing protein 17, sequence (P78536 whole entry, the tested form may be a part): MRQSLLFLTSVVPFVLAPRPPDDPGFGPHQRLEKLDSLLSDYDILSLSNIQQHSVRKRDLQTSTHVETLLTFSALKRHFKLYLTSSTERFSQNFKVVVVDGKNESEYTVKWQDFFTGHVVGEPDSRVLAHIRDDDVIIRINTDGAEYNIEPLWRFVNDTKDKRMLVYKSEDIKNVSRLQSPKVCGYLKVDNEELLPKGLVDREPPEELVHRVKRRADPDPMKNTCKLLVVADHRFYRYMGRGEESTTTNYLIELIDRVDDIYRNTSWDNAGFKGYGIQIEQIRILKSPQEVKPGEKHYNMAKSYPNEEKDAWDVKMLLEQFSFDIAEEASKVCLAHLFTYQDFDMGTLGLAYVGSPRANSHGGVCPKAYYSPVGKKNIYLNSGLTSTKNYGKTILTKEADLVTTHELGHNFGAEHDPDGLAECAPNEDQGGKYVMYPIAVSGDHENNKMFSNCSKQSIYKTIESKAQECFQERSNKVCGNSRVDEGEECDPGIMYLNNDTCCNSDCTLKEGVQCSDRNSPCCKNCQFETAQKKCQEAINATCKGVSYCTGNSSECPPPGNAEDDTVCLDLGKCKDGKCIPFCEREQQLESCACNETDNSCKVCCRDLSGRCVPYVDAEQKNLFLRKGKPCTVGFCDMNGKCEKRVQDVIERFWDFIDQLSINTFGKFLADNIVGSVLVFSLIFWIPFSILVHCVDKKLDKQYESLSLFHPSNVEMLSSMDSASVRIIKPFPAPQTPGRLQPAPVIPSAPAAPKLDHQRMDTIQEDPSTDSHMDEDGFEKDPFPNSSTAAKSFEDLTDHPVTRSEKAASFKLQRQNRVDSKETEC

With `C#CCN1C[C@H](C(=O)NO)[C@H](NS(=O)(=O)c2ccc(OCc3cc(C)nc4ccccc34)cc2)C1` as the molecule, how does the IC50 read?
Its IC50 is 0.7 nM.
